Assay results: patent publication US11447504B2, “Macrocyclic chlorine substituted indole derivatives” (Bayer Aktiengesellschaft, priority 2017, dated 2022)
Structures can show the parent of a compound that is named as a salt. Where two headings read alike, the source gives them in different places.

How the values were obtained:
MV-4-11 = assay: Antiproliferation assay 7, MV-4-11; type: cell-based; settings: MV-4-11 cells, CellTiter-Glo, read-out: Antiproli MV-4-11 IC50 median
Method: (§1) Assessment of the Anti-Proliferative Effect of Compounds in Different Cell Lines
(§2) The impact of compounds on the proliferation of different cell lines was assessed using the CellTiter-Glo® Luminescent Cell Viability reagent from Promega (G7573).
(§3) In parallel, cells were plated in a reference (day 0) plate for time zero determination.
(§4) Rim wells were excluded. The cells were incubated for 72 hours in a humidified incubator at 37° C. The day 0 plate was measured by adding 30 μL/well of CTG solution (CellTiter-Glo® Luminescent Cell Viability reagent, Promega G7573) to time zero wells in the reference plate followed by a 10 minutes incubation and luminescence reading at 0.1 ms. using the PHERAstar FS microplate reader (BMG Labtech).
(§5) After 72 hours incubation, the treated plates were measured in the same way as the day 0 plate mentioned above.

AMO-1 = assay: Antiproliferation assay 7, AMO-1; type: cell-based; settings: AMO-1 cells, CellTiter-Glo, read-out: Antiproli AMO-1 IC50 median
Method: as §1, §2, §3, §4, §5

SUDHL5 [1] = assay: Induction of caspase-3/7 activity (Assay 4), SUDHL5; type: cell-based; settings: SUDHL5 cells
Method: (§6) Induction of Caspase-3/7 Activity Upon Treatment of Cells with Selected Compounds
The BH3-domain of MCL-1 sequesters pro-apoptotic proteins, thereby inhibiting apoptosis. In contrast, MCL-1 inhibitors are expected to antagonize this effect leading to an increase in apoptosis, which can be determined by measuring the activity of caspase-3/7.
(§7) The activity of caspase-3/7 was determined in DLBCL (Diffuse large B-cell lymphoma) cell lines (SUDHL5 and SUDHL10) upon treatment with different compounds, using the Caspase-Glo®3/7 reagent from Promega (G8092).
(§8) Rim wells were excluded. The cells were incubated for 3 hours in a humidified incubator at 37° C.
(§9) For the evaluation of the results, the background measured with “medium-only” was subtracted from all other values.

SUDHL10 [2] = assay: Induction of cytotoxicity (Assay 6), SUDHL10
SUDHL5 [3] = assay: Induction of cytotoxicity (Assay 6), SUDHL5
SUDHL10 [4] = assay: Induction of caspase-3/7 activity (Assay 4), SUDHL10; type: cell-based; settings: SUDHL10 cells
Method: as §6
In contrast, MCL-1 inhibitors are expected to antagonize this effect leading to an increase in apoptosis, which can be determined by measuring the activity of caspase-3/7.
as §7, §8, §9

SUDHL5 [5] = assay: Antiproliferation assay 7, SUDHL5; type: cell-based; settings: SUDHL5 cells, CellTiter-Glo, read-out: Antiproli SUDHL5 IC50 (median)
Method: as §1, §2, §3, §4, §5

HMC-1-8 = assay: Antiproliferation assay 7, HMC-1-8; type: cell-based; settings: 72 h, HMC-1-8 cells, CellTiter-Glo, read-out: Antiproli HMC-1-8 IC50 median
Method: as §1, §2, §3, §4, §5

[6] = Homo sapiens, SU-DHL-5, 3 h, Caspase-Glo 3/7, read-out: Caspase SUDHL5 EC50 (median)
[7] = Homo sapiens, SU-DHL10, 5 h, read-out: Cytotox SUDHL10 IC50 (median), SUDHL10 cells, 5 hours, CellTiter-Glo
[8] = Homo sapiens, SU-DHL-5, 5 h, read-out: Cytotox SUDHL5 IC50 (median), SUDHL5 cells, 5 hours, CellTiter-Glo
[9] = Homo sapiens, SU-DHL10, 3 h, Caspase-Glo 3/7, read-out: Caspase SUDHL10 EC50 (median)
[10] = 3 hours, Caspase-Glo 3/7, read-out: Caspase SUDHL5 EC50 (median)
[11] = read-out: Cytotox SUDHL10 IC50 (median), SUDHL10 cells, 5 hours, CellTiter-Glo
[12] = read-out: Cytotox SUDHL5 IC50 (median), SUDHL5 cells, 5 hours, CellTiter-Glo
[13] = 3 hours, Caspase-Glo 3/7, read-out: Caspase SUDHL10 EC50 (median)

IC50 (MV-4-11; Homo sapiens, MV4-11, 72 h)	EC50 (SUDHL5 [1]; [6])	EC50 (SUDHL10 [4]; [9])	IC50 (SUDHL5 [5]; Homo sapiens, SU-DHL-5, 72 h)	IC50 (MV-4-11; 72 hours)	EC50 (SUDHL5 [1]; [10])	EC50 (SUDHL10 [4]; [13])	IC50 (SUDHL5 [5]; 72 hours)	SMILES	IC50 (AMO-1; Homo sapiens, AMO1, 72 h)	IC50 (SUDHL10 [2]; [7])	IC50 (SUDHL5 [3]; [8])	IC50 (HMC-1-8)	IC50 (AMO-1; 72 hours)	IC50 (SUDHL10 [2]; [11])	IC50 (SUDHL5 [3]; [12])
628 nM	290 nM	460 nM	530 nM	–	–	–	–	CCc1nn(CCN2CCOCC2)c2c1-c1c(Cl)ccc3c(CCCOc4cccc5ccccc45)c(C(=O)O)n(c13)CCCCN(C)C2 (racemic) [Example 45, (rac)-4-chloro-3-ethyl-14-methyl-1-[2-(morpholin-4-yl)ethyl]-7-{3-[(naphthalen-1-yl)oxy]propyl}-10,11,12,13,14,15-hexahydro-1H-pyrazolo[3′,4′:8,9][1,6]diazacycloundecino[10,11,1-hi]indole-8-carboxylic Acid]	593 nM	750 nM	400 nM	–	–	–	–
1710 nM	800 nM	1900 nM	1600 nM	–	–	–	–	CCc1c2c(nn1C)CCCCCCn1c(C(=O)O)c(CCCOc3cccc4ccccc34)c3ccc(Cl)c-2c31 (racemic) [Example 51, (rac)-4-chloro-3-ethyl-2-methyl-7-{3-[(naphthalen-1-yl)oxy]propyl}-10,11,12,13,14,15-hexahydro-2H-pyrazolo[4′,3′:4,5]azacycloundecino[3,2,1-hi]indole-8-carboxylic Acid]	2150 nM	2000 nM	840 nM	–	–	–	–
–	330 nM	–	–	–	–	–	–	CCc1c2c(nn1C)CN(CC(F)(F)F)CCCCn1c(C(=O)O)c(CCCOc3cccc4cc(F)ccc34)c3ccc(Cl)c-2c31 (racemic) [Example 61, (rac) 4-chloro-3-ethyl-7-{3-[(6-fluoronaphthalen-1-yl)oxy]propyl}-2-methyl-14-(2,2,2-trifluoroethyl)-10,11,12,13,14,15-hexahydro-2H-pyrazolo[3′,4′:8,9][1,6]diazacycloundecino[10,11,1-hi]indole-8-carboxylic Acid]	1870 nM	–	540 nM	7150 nM	–	–	–
–	–	–	–	5650 nM	11000 nM	22000 nM	8000 nM	CCc1nn(CCN2CCOCC2)c2c1-c1c(Cl)ccc3c(CCCOc4cccc5ccccc45)c(C(=O)O)n(c13)CCCCN(C)C2 (single isomer, unassigned; enantiomer 2) [Example 47, 4-chloro-3-ethyl-14-methyl-1-[2-(morpholin-4-yl)ethyl]-7-{3-[(naphthalen-1-yl)oxy]propyl}-10,11,12,13,14,15-hexahydro-1H-pyrazolo[3′,4′:8,9][1,6]diazacycloundecino[10,11,1-hi]indole-8-carboxylic Acid (Enantiomer 2)]	–	–	–	–	–	17000 nM	10000 nM

The next lines start with the compound.

SMILES	IC50 (MV-4-11; Homo sapiens, MV4-11, 72 h)	EC50 (SUDHL5 [1]; [6])	EC50 (SUDHL10 [4]; [9])	IC50 (SUDHL5 [5]; Homo sapiens, SU-DHL-5, 72 h)	IC50 (MV-4-11; 72 hours)	EC50 (SUDHL5 [1]; [10])	EC50 (SUDHL10 [4]; [13])	IC50 (SUDHL5 [5]; 72 hours)	IC50 (AMO-1; Homo sapiens, AMO1, 72 h)	IC50 (SUDHL10 [2]; [7])	IC50 (SUDHL5 [3]; [8])	IC50 (HMC-1-8)	IC50 (AMO-1; 72 hours)	IC50 (SUDHL10 [2]; [11])	IC50 (SUDHL5 [3]; [12])
CCc1c2c(nn1C)COCCCCn1c(C(=O)O)c(CCCOc3cccc4cc(F)ccc34)c3ccc(Cl)c-2c31 (racemic) [Example 36, (rac)-4-chloro-3-ethyl-7-{3-[(6-fluoronaphthalen-1-yl)oxy]propyl}-2-methyl-2,10,11,12,13,15-hexahydropyrazolo[4′,3′:9,10][1,6]oxazacycloundecino[8,7,6-hi]indole-8-carboxylic Acid]	1010 nM	300 nM	450 nM	340 nM	–	–	–	–	286 nM	640 nM	300 nM	–	–	–	–
CCc1nn(C)c2c1-c1c(Cl)ccc3c(CCCOc4cccc5cc(F)ccc45)c(C(=O)O)n(c13)CCCCN(C)C2 (racemic) [Example 39, (rac)-4-chloro-3-ethyl-7-{3-[(6-fluoronaphthalen-1-yl)oxy]propyl}-1,14-dimethyl-10,11,12,13,14,15-hexahydro-1H-pyrazolo[3′,4′:8,9][1,6]diazacycloundecino[10,11,1-hi]indole-8-carboxylic Acid]	442 nM	200 nM	390 nM	200 nM	–	–	–	–	359 nM	410 nM	230 nM	–	–	–	–
CCc1nn(CCN2CCOCC2)c2c1-c1c(Cl)ccc3c(CCCOc4cccc5ccccc45)c(C(=O)O)n(c13)C/C=C\CN(C)C2 (racemic) [Example 42, (rac)-(11Z)-4-chloro-3-ethyl-14-methyl-1-[2-(morpholin-4-yl)ethyl]-7-{3-[(naphthalen-1-yl)oxy]-propyl}-10,13,14,15-tetrahydro-1H-pyrazolo[3′,4′:8,9][1,6]diazacycloundecino[10,11,1-hi]indole-8-carboxylic Acid]	975 nM	540 nM	1300 nM	220 nM	–	–	–	–	1380 nM	1600 nM	600 nM	–	–	–	–
CCc1c2c(nn1C)CN(C)CCCCn1c(C(=O)O)c(CCCOc3cccc4cc(F)ccc34)c3ccc(Cl)c-2c31 (single isomer, unassigned; enantiomer 2) [Example 7, 4-chloro-3-ethyl-7-{3-[(6-fluoronaphthalen-1-yl)oxy]propyl}-2,14-dimethyl-10,11,12,13,14,15-hexahydro-2H-pyrazolo[3′,4′:8,9][1,6]diazacycloundecino[10,11,1-hi]indole-8-carboxylic Acid (Enantiomer 2)]	–	–	–	–	8630 nM	11000 nM	16000 nM	4200 nM	–	–	–	–	11100 nM	8300 nM	7100 nM
CCc1c2c(nn1C)COCCCCn1c(C(=O)O)c(CCCOc3cccc4cc(F)ccc34)c3ccc(Cl)c-2c31 (single isomer, unassigned; enantiomer 2) [Example 38, (−)-4-chloro-3-ethyl-7-{3-[(6-fluoronaphthalen-1-yl)oxy]propyl}-2-methyl-2,10,11,12,13,15-hexahydropyrazolo[4′,3′:9,10][1,6]oxazacycloundecino[8,7,6-hi]indole-8-carboxylic acid-N-ethylethanamine Salt (Enantiomer 2)]	–	–	–	–	13400 nM	–	13000 nM	1800 nM	–	–	–	–	11500 nM	14000 nM	4300 nM
CCc1nn(C)c2c1-c1c(Cl)ccc3c(CCCOc4cccc5cc(F)ccc45)c(C(=O)O)n(c13)CCCCN(C)C2 (single isomer, unassigned; enantiomer 2) [Example 41, 4-chloro-3-ethyl-7-{3-[(6-fluoronaphthalen-1-yl)oxy]propyl}-1,14-dimethyl-10,11,12,13,14,15-hexahydro-1H-pyrazolo[3′,4′:8,9][1,6]diazacycloundecino[10,11,1-hi]indole-8-carboxylic Acid (Enantiomer 2)]	–	–	–	–	4890 nM	2800 nM	9400 nM	2700 nM	–	–	–	–	14900 nM	12000 nM	4000 nM
CCc1nn(CCN2CCOCC2)c2c1-c1c(Cl)ccc3c(CCCOc4cccc5ccccc45)c(C(=O)O)n(c13)C/C=C\CN(C)C2 (single isomer, unassigned; enantiomer 2) [Example 44, (11Z)-4-chloro-3-ethyl-14-methyl-1-[2-(morpholin-4-yl)ethyl]-7-{3-[(naphthalen-1-yl)oxy]propyl}-10,13,14,15-tetrahydro-1H-pyrazolo[3′,4′:8,9][1,6]diazacycloundecino[10,11,1-hi]indole-8-carboxylic Acid-Ammonia Salt (Enantiomer 2)]	–	–	–	–	11700 nM	9400 nM	13000 nM	7200 nM	–	–	–	–	15500 nM	15000 nM	8100 nM
